Reference: patent US10631539B2, “Fungicidal compositions” (SYNGENTA PARTICIPATIONS AG, priority 2015, dated 2020)

The compounds below were run on Puccinia recondita f. sp. tritici (assay: Puccinia recondita f. sp. tritici / wheat / leaf disc curative (brown rust)). Conditions: foliar, 24 h, wheat leaf disks cv. Kanzler, applied 1 day after inoculation (curative), compared to untreated control, read-out: disease control.
Type: in vivo
Description: Puccinia recondita f. Sp. Tritici/Wheat/Leaf Disc Curative (Brown Rust)
Wheat leaf segments cv. Kanzler are placed on agar in multiwell plates (24-well format). The leaf segments are inoculated with a spore suspension of the fungus. Plates were stored in darkness at 19° C. and 75% rh. The formulated test compound or mixture composition diluted in water was applied 1 day after inoculation. The leaf segments were incubated at 19° C. and 75% rh under a light regime of 12 h light/12 h darkness in a climate cabinet and the activity of a compound or mixture composition was assessed as percent disease control compared to untreated when an appropriate level of disease damage appears in untreated check leaf segments (6-8 days after application).

SMILES | pest or weed control at 200 ppm [%]
CCCOC[C@H](C)Oc1nc(C)c(/N=C/N(C)CC)cc1Br [Compound 67.002, N′-[5-bromo-2-methyl-6-[(1S)-1-methyl-2-propoxy-ethoxy]-3-pyridyl]-N-ethyl-N-methyl-formamidine] | ≥ 80
CCCOC[C@@H](C)Oc1nc(C)c(/N=C/N(C)CC)cc1Br [Compound 67.003, N′-[5-bromo-2-methyl-6-[(1R)-1-methyl-2-propoxy-ethoxy]-3-pyridyl]-N-ethyl-N-methyl-formamidine] | ≥ 80
CCCOCC(C)Oc1nc(C)c(/N=C/N(C)CC)cc1C#N (stereo not shown) [Compound 67.007, N′-[5-cyano-2-methyl-6-(1-methyl-2-propoxy-ethoxy)-3-pyridyl]-N-ethyl-N-methyl-formamidine] | ≥ 80
CCCOCC(C)Oc1nc(C)c(/N=C/N(C)CC)cc1C(F)F (stereo not shown) [Compound 67.009, N′-[5-(difluoromethyl)-2-methyl-6-(1-methyl-2-propoxy-ethoxy)-3-pyridyl]-N-ethyl-N-methyl-formamidine] | ≥ 80
CCCOCC(C)Oc1nc(C)c(/N=C/N(C)CC)cc1OC(F)F (stereo not shown) [Compound 67.010] | ≥ 80
CCCOCC(C)Oc1nc(C)c(/N=C/N(C)CC)cc1C (stereo not shown) [Compound 67.011, N′-[2,5-dimethyl-6-(1-methyl-2-propoxy-ethoxy)-3-pyridyl]-N-ethyl-N-methyl-formamidine] | ≥ 80
CCCOCC(C)Oc1ccc(/N=C/N(C)CC)c(C)n1 (stereo not shown) [Compound 67.012] | ≥ 80
CCCOCC(C)Oc1nc(C)c(/N=C/N(C)CC)cc1Br (stereo not shown) [Compound 67.013, N′-[5-bromo-2-methyl-6-(1-methyl-2-propoxy-ethoxy)-3-pyridyl]-N-ethyl-N-methyl-formamidine] | ≥ 80
C=CCOCC(C)Oc1nc(C)c(/N=C/N(C)CC)cc1Cl (stereo not shown) [Compound 67.014, N′-[6-(2-allyloxy-1-methyl-ethoxy)-5-chloro-2-methyl-3-pyridyl]-N-ethyl-N-methyl-formamidine] | ≥ 80
CCCOCC(C)Oc1nc(C)c(/N=C/N(C)CC)cc1Cl (stereo not shown) [Compound 67.015, N′-[5-chloro-2-methyl-6-(1-methyl-2-propoxy-ethoxy)-3-pyridyl]-N-ethyl-N-methyl-formamidine] | ≥ 80
C=CCOCC(COC)Oc1nc(C)c(/N=C/N(C)CC)cc1Br (stereo not shown) [Compound 67.016] | ≥ 80
C=CCOCC(C)Oc1nc(C)c(/N=C/N(C)CC)cc1C#N (stereo not shown) [Compound 67.017] | ≥ 80
CCCOCC(C)Oc1nc(C)c(/N=C/N(C)C(C)C)cc1Br (stereo not shown) [Compound 67.018, N′-[5-bromo-2-methyl-6-(1-methyl-2-propoxy-ethoxy)-3-pyridyl]-N-isopropyl-N-methyl-formamidine] | ≥ 80
CCN(C)/C=N/c1cc(C#N)c(OC(C)COc2cccc(C(F)(F)F)c2)nc1C (stereo not shown) [Compound 67.020] | ≥ 80
CCN(C)/C=N/c1cc(C#N)c(OC(C)COc2ccc(Cl)cc2)nc1C (stereo not shown) [Compound 67.021] | ≥ 80
CCN(C)/C=N/c1cc(C#N)c(OC(C)COc2ccccc2)nc1C (stereo not shown) [Compound 67.022] | ≥ 80
CCN(C)/C=N/c1cc(Cl)c(OC(C)COc2cccc(C(F)(F)F)c2)nc1C (stereo not shown) [Compound 67.023] | ≥ 80
CCN(C)/C=N/c1cc(Cl)c(OC(C)COc2ccc(Cl)cc2)nc1C (stereo not shown) [Compound 67.024] | ≥ 80
CCN(C)/C=N/c1cc(Cl)c(OC(C)COc2ccccc2)nc1C (stereo not shown) [Compound 67.025] | ≥ 80
CCN(C)/C=N/c1cc(Br)c(OC(C)COc2ccc(Cl)cc2)nc1C (stereo not shown) [Compound 67.026] | ≥ 80
CCN(C)/C=N/c1cc(Br)c(OC(C)COc2cccc(C(F)(F)F)c2)nc1C (stereo not shown) [Compound 67.027] | ≥ 80
CCN(C)/C=N/c1cc(Br)c(OC(C)COc2ccccc2)nc1C (stereo not shown) [Compound 67.028] | ≥ 80

What follows are compounds tested on Phakopsora pachyrhizi (triazole tolerant soybean rust strain) (assay: Phakopsora pachyrhizi on soybean, preventive treatment). Conditions: foliar, 264 h, 1 day preventive, leaf discs evaluated 11 days after application, compared to untreated control, read-out: disease control.
Type: in vivo
Description: Phakopsora pachyrhizi on Soybean, Preventive Treatment
The compound or mixture composition activity was tested under 1 day preventive conditions. Soybean plants with a fully enfolded first trifoliate leaf were sprayed with a track sprayer and 50 l/ha spray volume with the test compounds or mixture composition, either solo or in tankmix as shown in the table below.
1 day after application leaf discs were cut from the first trifoliate leaf and placed in multiwell plates on water-agar. 5 leaf discs per treatment where infested with spores of a triazole tolerant soybean rust strain. The multiwell plates where sealed and placed in an incubator 48 h in darkness and 12 h light/dark cycle afterwards. Rust infestation on leaf discs was evaluated visually 11 days after application and average activity calculated in relation to disease severity on untreated check leaf discs.

SMILES | pest or weed control at 200 ppm [%]
CCCOC[C@H](C)Oc1nc(C)c(/N=C/N(C)CC)cc1Br [Compound 67.002, N′-[5-bromo-2-methyl-6-[(1S)-1-methyl-2-propoxy-ethoxy]-3-pyridyl]-N-ethyl-N-methyl-formamidine] | ≥ 80

The compounds below were run on Blumeria graminis f. Sp. Tritici (Erysiphe qraminis f. Sp. Tritici) (assay: Blumeria graminis f. sp. tritici / wheat / leaf disc preventative (powdery mildew on wheat)). Conditions: foliar, wheat leaf disks cv. Kanzler, inoculated 1 day after application, compared to untreated control, read-out: disease control.
Type: in vivo
Description: Blumeria graminis f. Sp. Tritici (Erysiphe qraminis f. Sp. Tritici)/Wheat/Leaf Disc Preventative (Powdery Mildew on Wheat)
Wheat leaf segments cv. Kanzler were placed on agar in a multiwell plate (24-well format) and sprayed with the formulated test compound or mixture composition diluted in water. The leaf disks were inoculated by shaking powdery mildew infected plants above the test plates 1 day after application. The inoculated leaf disks were incubated at 20° C. and 60% rh under a light regime of 24 h darkness followed by 12 h light/12 h darkness in a climate chamber and the activity of a compound or mixture composition was assessed as percent disease control compared to untreated when an appropriate level of disease damage appears on untreated check leaf segments (6-8 days after application).

SMILES | pest or weed control at 200 ppm [%]
CCCOC[C@H](C)Oc1nc(C)c(/N=C/N(C)CC)cc1Br [Compound 67.002, N′-[5-bromo-2-methyl-6-[(1S)-1-methyl-2-propoxy-ethoxy]-3-pyridyl]-N-ethyl-N-methyl-formamidine] | ≥ 80

Each compound was assayed on Puccinia recondita f. sp. tritici (assay: Puccinia recondita f. sp. tritici / wheat / leaf disc preventative (brown rust)). Conditions: foliar, wheat leaf disks cv. Kanzler, inoculated 1 day after application, compared to untreated control, read-out: disease control.
Type: in vivo
Description: Puccinia recondita f. sp. tritici/wheat/leaf disc preventative (brown rust)
Wheat leaf segments cv. Kanzler were placed on agar in multiwell plates (24-well format) and sprayed with the formulated test compound or mixture composition diluted in water. The leaf disks were inoculated with a spore suspension of the fungus 1 day after application. The inoculated leaf segments were incubated at 19° C. and 75% rh under a light regime of 12 h light/12 h darkness in a climate cabinet and the activity of a compound or mixture composition was assessed as percent disease control compared to untreated when an appropriate level of disease damage appears in untreated check leaf segments (7-9 days after application).

SMILES | pest or weed control at 200 ppm [%]
CCCOC[C@H](C)Oc1nc(C)c(/N=C/N(C)CC)cc1Br [Compound 67.002, N′-[5-bromo-2-methyl-6-[(1S)-1-methyl-2-propoxy-ethoxy]-3-pyridyl]-N-ethyl-N-methyl-formamidine] | ≥ 80
